In ChEMBL document CHEMBL4689842, “EUbOPEN Chemogenomics Library wave 1” (2021):

Tests used:
[1] = system: HEK-293T; experiment: Incucyte cell viability with HEK293T; format: toxicity, cell-based; details: human, 10 µM, compound concentration 10 uM
[2] = system: U2OS; experiment: Incucyte cell viability with U2OS; format: toxicity, cell-based; details: human, 10 µM, compound concentration 10 uM
[3] = 0 h, replicate number 1, timepoint 0 hours
[4] = 6 h, replicate number 2, timepoint 6 hours
[5] = 12 h, replicate number 2, timepoint 12 hours
[6] = 18 h, replicate number 1, timepoint 18 hours
[7] = 18 h, replicate number 2, timepoint 18 hours
[8] = 24 h, replicate number 1, timepoint 24 hours
[9] = 0 h, replicate number 2, timepoint 0 hours
[10] = 6 h, replicate number 1, timepoint 6 hours
[11] = 12 h, replicate number 1, timepoint 12 hours
[12] = 24 h, replicate number 2, timepoint 24 hours
Also: filed as whole numbers so only -1 and 0 and 1 occur.

| Structure (SMILES) | Growth Rate [1, 3] | Growth Rate [1, 4] | Growth Rate [1, 5] | Growth Rate [1, 6] | Growth Rate [1, 7] | Growth Rate [1, 8] | Growth Rate [2, 3] | Growth Rate [2, 9] | Growth Rate [2, 10] | Growth Rate [2, 4] | Growth Rate [2, 11] | Growth Rate [2, 6] | Growth Rate [2, 8] | Growth Rate [1, 10] | Growth Rate [1, 11] | Growth Rate [2, 12] | Growth Rate [1, 9] | Growth Rate [2, 5] | Growth Rate [2, 7] | Growth Rate [1, 12] |
| --- | --- | --- | --- | --- | --- | --- | --- | --- | --- | --- | --- | --- | --- | --- | --- | --- | --- | --- | --- | --- |
| COc1cc(N2CCN(C)CC2)ccc1Nc1ncc2c(n1)N(C)c1ccccc1C(=O)N2C | 1 | 1 | 0 | 1 | 0 | 0 | 0 | 1 | 1 | 0 | 1 | 0 | 0 |  |  |  |  |  |  |  |
| COCC(=O)NC/C=C/c1ccc2ncnc(Nc3ccc(Oc4ccc(C)nc4)c(C)c3)c2c1 [CP-724714] |  |  |  | 0 |  | 0 | 0 | 1 | 1 |  | 1 | 0 | 1 | 0 | 0 | 0 |  |  |  |  |
| CCNc1cc(N[C@H]2CC[C@H](O)CC2)nc(Nc2ccc3c(ccn3Cc3ccccc3)c2)n1 |  |  |  | 0 |  | 0 | 0 |  | 0 |  | 0 | 0 | 0 | 0 | 0 |  |  |  |  |  |
| CN1C2CCC1CC(OC(c1ccc(F)cc1)c1ccc(F)cc1)C2.Cl (stereo not given) |  |  |  | 0 |  | 0 |  |  |  | 0 | 1 | 0 | 0 | 0 | 0 |  | 1 | 0 |  |  |
| Cn1nc(C(=O)NCc2ccc(C(=O)O)cc2)cc1-c1ccc2[nH]ccc2c1 [BI 4395] | 0 |  |  | 0 | 1 | 0 |  | 0 | 1 |  | 1 | 1 | 1 |  | 0 |  | 1 |  |  |  |
| O=C(Cc1ccc(-c2ccc(OCCN3CCOCC3)cc2)cn1)NCc1ccccc1 [TIRBANIBULIN] |  |  |  | 0 |  | 0 |  | 0 | 1 |  | 0 | 0 | 0 | 0 | 0 |  |  |  |  |  |
| COc1cc2ncnc(Nc3ccc(F)c(Cl)c3)c2cc1NC(=O)/C=C/CN1CCCCC1 [DACOMITINIB ANHYDROUS] |  |  |  | 0 |  | 0 | 0 |  | 0 |  | 0 | 0 | 0 | 0 | 0 |  |  |  |  |  |
| C=C1/C(=C\C=C2/CCC[C@]3(C)[C@@H]([C@H](C)/C=C/[C@H](C)C(C)C)CC[C@@H]23)C[C@@H](O)C[C@@H]1O [DOXERCALCIFEROL] | 0 |  |  | 0 |  | 0 | 0 |  |  |  | 1 | 1 | 0 | 0 | 0 |  |  | 0 | 0 |  |
| C=CCn1c(=O)c2cnc(Nc3ccc(N4CCN(C)CC4)cc3)nc2n1-c1cccc(C(C)(C)O)n1 [ADAVOSERTIB] |  |  |  | 0 |  | 0 | 0 |  | 0 |  | 0 | 0 | 0 | 0 | 0 |  |  |  |  |  |
| CCN1CCN(Cc2ccc(Nc3ncc(F)c(-c4cc(F)c5nc(C)n(C(C)C)c5c4)n3)nc2)CC1.CS(=O)(=O)O | 0 |  |  | 0 |  | 0 |  | 1 |  |  | 1 | 0 | 0 | 0 | 0 |  |  |  | 1 |  |
| Cl.O=C(c1ccc(Nc2nccc(-c3cc4ccccc4s3)n2)cc1)N1CCC(N2CCCC2)CC1 |  |  |  | 0 |  | 0 |  | 0 |  |  | 0 | 0 | 0 | 0 | 0 |  |  |  |  |  |
| CCn1c(=O)c(-c2ccc(-c3cncs3)cc2Cl)cc2cnc(Nc3ccc(N4CCN(C)CC4)cc3)nc21 | 0 |  | 0 |  | 1 | 1 |  | 1 |  |  | 0 | 0 | 0 | 0 |  |  |  | 1 |  | 0 |
| C[C@H]1Oc2cc(cnc2N)-c2c(nn(C)c2C#N)CN(C)C(=O)c2ccc(F)cc21 [LORLATINIB] | 0 |  |  | 0 |  | 0 |  | 1 | 1 |  | 1 | 1 | 1 | 0 | 0 |  |  |  |  |  |
| CCOc1cc(C(=O)N2CCC(N3CCN(C)CC3)CC2)ccc1Nc1ncc2c(n1)N(C1CCCC1)c1ccccc1C(=O)N2C |  |  |  | 0 |  | 0 |  | 0 | 1 |  | 0 | 0 | 0 | 0 | 0 |  | 0 | 1 |  |  |
| Cc1cc(C)c(S(=O)(=O)N(Cc2ccc(-c3cccc(S(C)(=O)=O)c3)cc2)Cc2ccc(C(F)(F)F)o2)c(C)c1 | 0 | 1 |  | 0 |  | 0 | 0 | 1 |  | 1 | 1 | 1 | 1 | 0 | 0 |  |  |  |  |  |
| COC(=N)c1nc2ccc3ncnc(Nc4ccc(OC)cc4F)c3c2s1 | 0 |  |  | 0 |  | 0 |  | 1 |  | 1 | 0 | 0 | 0 | 0 | 0 |  | 1 |  |  |  |
| O=C(Nc1ccc(-n2nc(-c3cccnc3)cc2C(F)(F)F)cn1)c1ccc(-c2ccccc2)c(F)c1 [BI 2049] | 1 |  |  | 0 |  | 0 |  |  | 0 | 1 | 0 | 0 | 0 | 0 | 0 |  |  |  |  |  |
| Cn1nc(C(F)(F)F)cc1-c1cnc(N2CCc3cc(S(=O)(=O)Nc4c(F)cc(Cl)cc4F)cc(N4CCCC4=O)c32)nc1 [TP-020] | 0 | 1 |  | 0 |  | 0 |  | 1 | 0 |  | 1 | 1 | 1 | 0 | 0 | 0 | 1 | 0 | 0 |  |
| CCCS(=O)(=O)c1nc(NC2CC2)cc(-c2ccc3c(ccn3C3CC(C)(C)NC(C)(C)C3)c2)n1 |  |  |  | 0 |  | 0 |  | 0 | 0 |  | 0 | 0 | 0 | 0 | 0 |  | 0 |  |  |  |
| CCc1cccc(CC)c1NC(=O)c1nn(C)c2c1CCc1cnc(Nc3ccc(C(=O)NC4CCN(C)CC4)cc3OC(F)(F)F)nc1-2 |  |  |  | 0 |  | 0 |  | 0 | 1 | 0 | 0 | 0 | 0 | 0 | 0 |  |  |  |  |  |
